Experimental data reported in the supplement of paper PMC5908809.

Key:
[1] = tested on: normal NK cells expanded with K562-aAPC; assay: drug sensitivity score (DSS) (DSS units); higher = more sensitive; extreme values may be limits of the assay; settings: 72 h; IL-2 2.5 ng/mL
Procedure: (§1)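 Drug sensitivity and resistance testing on K562-aAPC-expanded normal NK cells: 5 concentrations (10-fold steps over a 10,000-fold range), 72 h at 37 °C, viability by CellTiter-Glo normalised to DMSO and benzethonium chloride controls; DSS from the fitted curve.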

YT (IL-2 2.5 ng/mL) [2] = assay: as above; settings: 72 h
[3] = tested on: normal primary NK cells, pool 3 (3 donors) (IL-2 2.5 ng/mL); assay: as above; settings: 72 h
KAI3 (IL-2 2.5 ng/mL) [4] = assay: as above; settings: 72 h
[5] = tested on: normal primary NK cells, pool 2 (3 donors) (IL-2 2.5 ng/mL); assay: as above; settings: 72 h
NKL (IL-2 2.5 ng/mL) [6] = assay: as above; settings: 72 h
NK-92 (IL-2 2.5 ng/mL) [7] = assay: as above; settings: 72 h
IMC-1 (IL-2 20 ng/mL) [8] = assay: as above; settings: 72 h
NK-YS (IL-2 2.5 ng/mL) [9] = assay: as above; settings: 72 h
SNK-6 (IL-2 2.5 ng/mL) [10] = assay: as above; settings: 72 h
KHYG-1 (IL-2 2.5 ng/mL) [11] = assay: as above; settings: 72 h
[12] = tested on: normal primary NK cells, pool 1 (3 donors), resting (IL-2 0 ng/mL); assay: as above; settings: 72 h
DERL-7 (IL-2 2.5 ng/mL) [13] = assay: as above; settings: 72 h
[14] = tested on: normal primary NK cells, pool 1 (3 donors) (IL-2 2.5 ng/mL); assay: as above; settings: 72 h
[15] = tested on: normal NK cells expanded with K562-aAPC; assay: percent inhibition of viability; higher = more inhibition; settings: 72 h, IL-2 2.5 ng/mL
Procedure: as §1

YT (IL-2 2.5 ng/mL) [16] = assay: as above; settings: 72 h
[17] = tested on: normal primary NK cells, pool 3 (3 donors) (IL-2 2.5 ng/mL); assay: as above; settings: 72 h
KAI3 (IL-2 2.5 ng/mL) [18] = assay: as above; settings: 72 h
[19] = tested on: normal primary NK cells, pool 2 (3 donors) (IL-2 2.5 ng/mL); assay: as above; settings: 72 h
NKL (IL-2 2.5 ng/mL) [20] = assay: as above; settings: 72 h
NK-92 (IL-2 2.5 ng/mL) [21] = assay: as above; settings: 72 h
IMC-1 (IL-2 20 ng/mL) [22] = assay: as above; settings: 72 h
NK-YS (IL-2 2.5 ng/mL) [23] = assay: as above; settings: 72 h
SNK-6 (IL-2 2.5 ng/mL) [24] = assay: as above; settings: 72 h
KHYG-1 (IL-2 2.5 ng/mL) [25] = assay: as above; settings: 72 h
[26] = tested on: normal primary NK cells, pool 1 (3 donors), resting (IL-2 0 ng/mL); assay: as above; settings: 72 h
DERL-7 (IL-2 2.5 ng/mL) [27] = assay: as above; settings: 72 h
[28] = tested on: normal primary NK cells, pool 1 (3 donors) (IL-2 2.5 ng/mL); assay: as above; settings: 72 h

Cc1nc(Nc2n[nH]c3c2CN(C(=O)N[C@H](CN(C)C)c2ccccc2)C3(C)C)c2sccc2n1 (max concentration tested 10000 nM)
Settings	drug sensitivity score
DERL-7 (IL-2 2.5 ng/mL) [13]	24.7
IMC-1 (IL-2 20 ng/mL) [8]	41.6
KAI3 (IL-2 2.5 ng/mL) [4]	18.1
KHYG-1 (IL-2 2.5 ng/mL) [11]	29.5
NK-92 (IL-2 2.5 ng/mL) [7]	15.2
NK-YS (IL-2 2.5 ng/mL) [9]	23
NKL (IL-2 2.5 ng/mL) [6]	14.4
SNK-6 (IL-2 2.5 ng/mL) [10]	8.41
YT (IL-2 2.5 ng/mL) [2]	17.5
[1]	11.5
[3]	8.84
[5]	13.5
[12]	9.24
[14]	9.34

percent inhibition of viability [%]
Settings	1 nM	10 nM	100 nM	1000 nM	10000 nM
DERL-7 (IL-2 2.5 ng/mL) [27]	5.19	43.4	60.3	59.5	100
IMC-1 (IL-2 20 ng/mL) [22]	-7.89	94	100	100	101
KAI3 (IL-2 2.5 ng/mL) [18]	9.34	25.2	38.2	52.7	103
KHYG-1 (IL-2 2.5 ng/mL) [25]	3.44	16.8	81.4	96.4	106
NK-92 (IL-2 2.5 ng/mL) [21]	2.81	5.29	27.2	59.5	105
NK-YS (IL-2 2.5 ng/mL) [23]	0.35	42.8	54.1	57.7	101
NKL (IL-2 2.5 ng/mL) [20]	-10.4	9.99	31.3	50.3	103
SNK-6 (IL-2 2.5 ng/mL) [24]	-2.61	16.3	16	31.2	87.1
YT (IL-2 2.5 ng/mL) [16]	0.99	13.6	41.7	56	104
[15]	4.54	6.07	22.4	41.8	101
[17]	-6.36	3.67	21.6	29.7	98.9
[19]	-7.71	9.61	27.4	49.4	98.1
[26]	5.47	-19.5	8.53	35.1	92.2
[28]	5.07	3.65	18.4	34.4	98.8
